Tested on: 991263-137-R1-J2-PDC complex spheroid viability
Experiment: Anticancer human tumor 991263-137-R1-J2-PDC patient-derived colon adenocarcinoma cell line growth inhibition [POLQ]
Details: for IC50: curve of first compound; for viability, T/C: stronger effect = lower value
Experimental: Multicellular complex tumor spheroid response to Polymerase (POL) inhibitors (novobiocin, ART-558, RP6685) in combination with a variety of drugs and investigational agents in selected tumor cell lines
The POL inhibitors (novobiocin, ART-558, and RP6685) were evaluated both individually and in combination with standard of care and investigational anticancer small molecules within a complex spheroid model of solid tumors. . Complex spheroids include a stromal component modeled by human endothelial cells (HUVEC) and fibroblasts modeled by human mesenchymal stem cells (MSCs). The concentration ranges selected for each drug and investigational agent were based upon clinically achievable concentrations if the clinical Cmax of the agent was known.
Compounds. The drugs and investigational agents: novobiocin (NSC847541), ART-558 (NSC835418), RP-6685 (NSC848927), peposertib (NSC802822), ceralasertib (NSC780249), elimusertib (NSC800525), camonsertib (NSC841442), AZD-1390 (NSC803789), olaparib (NSC753686), talazoparib (NSC767125), rucaparib (NSC756644), sotorasib (NSC818433), MRTX-1133 (NSC836407), SN-38 (NSC673596), topotecan (NSC609699), epotoside (NSC141540), doxorubicin (NSC123127), gemcitabine (NSC613327), 5-fluorouracil (NSC19893), paclitaxel (NSC125973), vemurafenib (NSC761431), MSA-2 (NSC828583), SN-011 (NSC837082), adavosertib (NSC754352), prexasertib (NSC758257), carboplatin (NSC241240) and oxaliplatin (NSC266046), were obtained from the National Cancer Institute (NCI) Developmental Therapeutics Program Chemical Repository (21). The FDA-approved anticancer drug set is available from the Developmental Therapeutics Program at https://dtp.cancer.gov/organization/dscb/obtaining/. […] The stock solutions were prepared in dimethyl sulfoxide (DMSO, Sigma-Aldrich, St. Louis, MO, cat. D2650), except for the platinum compounds which were prepared in saline (Quality Biological, Gaithersburg, MD, cat. 114-055-101), at 800-fold the tested concentration and stored at -70 degrees C prior to their use. All drugs and investigational agents were tested over a range starting from a high concentration at or near the clinical Cmax and decreasing in half-log increments. If the clinical Cmax for an agent had not been determined, the highest concentration tested was 10 microM, except for SN-38, which was tested at a high concentration of 1 microM.
Cell Culture. All cells were maintained in an incubator at 37 degrees C and 5% CO2 with 95% humidity. The PDC lines were cultured according to standard operating procedures established by the NCI PDMR (https://pdmr.cancer.gov). Table 3 of the manuscript, lists the cell lines along with the number of the three cell types plated to form the mct-spheroids and media for tumor cell growth. After thawing, all PDC lines, except 997537-175-T-J1-PDC and 415267-285-R-J2-PDC, were cultured in Matrigel-coated flasks prepared with a working solution of 1X Ham's F-12 nutrient mix, without supplementation (Thermo Fisher Scientific, cat. 11765054), 100 U/mL penicillin-streptomycin (Thermo Fisher Scientific, cat. 15140122), and 2.5% Matrigel (Corning Inc., Corning, NY, cat. 354248) for the first three passages. The two PDC lines 997537-175-T-J1-PDC and 415267-285-R-J2-PDC were cultured on uncoated flasks. The 857933-349-R-J2-PDC line was cultured in 6C/Colon 1B media containing advanced DMEM/F-12 (Thermo Fisher Scientific, cat. 12634028), 10 mM HEPES (Thermo Fisher Scientific, cat. 15630080), 1X GlutaMAX supplement (Thermo Fisher Scientific, cat. 35050061), 0.1 mg/mL primocin (InvivoGen, San Diego, CA, cat. ant-pm-2), 10% defined fetal bovine serum, heat inactivated (HyClone Laboratories Inc., Logan, UT, cat. SH30070.03HI), 50% L-WRN conditioned media (ATCC, cat. CRL-3276), 1.25 mM N-Acetyl-L-cysteine (Sigma-Aldrich, cat. A9165), 10 mM nicotinamide (Sigma-Aldrich, cat. N0636), 1X B-27 supplement (Thermo Fisher Scientific, cat. 17504044), 1X N-2 supplement (Thermo Fisher Scientific, cat. […]
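Also: spheroids exposed to compounds for 7 days before readout.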
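For viability, T/C in this document: 100% = DMSO vehicle control viability.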

Structure (SMILES): CC1COCCN1c1cc(C2(O)CC3CCC(C2)O3)c2cnn(-c3ccn[nH]3)c2n1 (centres undefined) + COC1C(OC(N)=O)C(O)C(Oc2ccc3c(O)c(NC(=O)c4ccc(O)c(CC=C(C)C)c4)c(=O)oc3c2C)OC1(C)C
- IC50 (second compound 0.0316 µM): 1460 nM
- IC50 (second compound 0.1 µM): 1930 nM
- IC50 (second compound 0.316 µM): 947 nM
- IC50 (second compound 1 µM): 1580 nM
- IC50 (second compound 3.16 µM): 1870 nM
- IC50 (second compound 10 µM): 1450 nM
- viability, T/C (second compound 0.0316 µM, first compound 0.0316 µM): 85.5%
- viability, T/C (second compound 0.0316 µM, first compound 0.1 µM): 95.5%
- viability, T/C (second compound 0.0316 µM, first compound 0.316 µM): 81.5%
- viability, T/C (second compound 0.0316 µM, first compound 1 µM): 58.6%
- viability, T/C (second compound 0.0316 µM, first compound 3.16 µM): 33.2%
- viability, T/C (second compound 0.0316 µM, first compound 10 µM): 29.4%
- viability, T/C (second compound 0.1 µM, first compound 0.0316 µM): 102%
- viability, T/C (second compound 0.1 µM, first compound 0.1 µM): 95.3%
- viability, T/C (second compound 0.1 µM, first compound 0.316 µM): 80.4%
- viability, T/C (second compound 0.1 µM, first compound 1 µM): 64.8%
- viability, T/C (second compound 0.1 µM, first compound 3.16 µM): 39%
- viability, T/C (second compound 0.1 µM, first compound 10 µM): 25%
- viability, T/C (second compound 0.316 µM, first compound 0.0316 µM): 106%
- viability, T/C (second compound 0.316 µM, first compound 0.1 µM): 100%
- viability, T/C (second compound 0.316 µM, first compound 0.316 µM): 78.9%
- viability, T/C (second compound 0.316 µM, first compound 1 µM): 50.5%
- viability, T/C (second compound 0.316 µM, first compound 3.16 µM): 26.5%
- viability, T/C (second compound 0.316 µM, first compound 10 µM): 26.1%
- viability, T/C (second compound 1 µM, first compound 0.0316 µM): 104%
- viability, T/C (second compound 1 µM, first compound 0.1 µM): 106%
- viability, T/C (second compound 1 µM, first compound 0.316 µM): 85.7%
- viability, T/C (second compound 1 µM, first compound 1 µM): 59.8%
- viability, T/C (second compound 1 µM, first compound 3.16 µM): 36.2%
- viability, T/C (second compound 1 µM, first compound 10 µM): 23.7%
- viability, T/C (second compound 3.16 µM, first compound 0.0316 µM): 89.8%
- viability, T/C (second compound 3.16 µM, first compound 0.1 µM): 76.4%
- viability, T/C (second compound 3.16 µM, first compound 0.316 µM): 73.9%
- viability, T/C (second compound 3.16 µM, first compound 1 µM): 56.1%
- viability, T/C (second compound 3.16 µM, first compound 3.16 µM): 46%
- viability, T/C (second compound 3.16 µM, first compound 10 µM): 21.6%
- viability, T/C (second compound 10 µM, first compound 0.0316 µM): 84.7%
- viability, T/C (second compound 10 µM, first compound 0.1 µM): 95.8%
- viability, T/C (second compound 10 µM, first compound 0.316 µM): 74.3%
- viability, T/C (second compound 10 µM, first compound 1 µM): 56.4%
- viability, T/C (second compound 10 µM, first compound 3.16 µM): 36.7%
- viability, T/C (second compound 10 µM, first compound 10 µM): 21.2%

Structure (SMILES): CC(=O)O[C@H]1C(=O)[C@@]2(C)[C@H]([C@H](OC(=O)c3ccccc3)[C@]3(O)C[C@H](OC(=O)[C@H](O)[C@@H](NC(=O)c4ccccc4)c4ccccc4)C(C)=C1C3(C)C)[C@]1(OC(C)=O)CO[C@@H]1C[C@@H]2O + Cc1cccc(N(C)C(=O)C2C(O)CCN2c2nc(C)cc(C(F)(F)F)c2C#N)c1
- IC50 (second compound 0.0316 µM): 1360 nM
- IC50 (second compound 0.1 µM): 1830 nM
- IC50 (second compound 0.316 µM): 1040 nM
- IC50 (second compound 1 µM): 825 nM
- IC50 (second compound 3.16 µM): 1510 nM
- IC50 (second compound 10 µM): 295 nM
- viability, T/C (second compound 0.0316 µM, first compound 0.00949 µM): 80.4%
- viability, T/C (second compound 0.0316 µM, first compound 0.03 µM): 85.6%
- viability, T/C (second compound 0.0316 µM, first compound 0.0949 µM): 85.2%
- viability, T/C (second compound 0.0316 µM, first compound 0.3 µM): 67.5%
- viability, T/C (second compound 0.0316 µM, first compound 0.949 µM): 53.2%
- viability, T/C (second compound 0.0316 µM, first compound 3 µM): 46.1%
- viability, T/C (second compound 0.1 µM, first compound 0.00949 µM): 93.4%
- viability, T/C (second compound 0.1 µM, first compound 0.03 µM): 92.5%
- viability, T/C (second compound 0.1 µM, first compound 0.0949 µM): 84.2%
- viability, T/C (second compound 0.1 µM, first compound 0.3 µM): 74%
- viability, T/C (second compound 0.1 µM, first compound 0.949 µM): 57.9%
- viability, T/C (second compound 0.1 µM, first compound 3 µM): 44%
- viability, T/C (second compound 0.316 µM, first compound 0.00949 µM): 85.8%
- viability, T/C (second compound 0.316 µM, first compound 0.03 µM): 86.3%
- viability, T/C (second compound 0.316 µM, first compound 0.0949 µM): 83.4%
- viability, T/C (second compound 0.316 µM, first compound 0.3 µM): 74.1%
- viability, T/C (second compound 0.316 µM, first compound 0.949 µM): 50.1%
- viability, T/C (second compound 0.316 µM, first compound 3 µM): 46.1%
- viability, T/C (second compound 1 µM, first compound 0.00949 µM): 82.6%
- viability, T/C (second compound 1 µM, first compound 0.03 µM): 89.2%
- viability, T/C (second compound 1 µM, first compound 0.0949 µM): 85%
- viability, T/C (second compound 1 µM, first compound 0.3 µM): 63.2%
- viability, T/C (second compound 1 µM, first compound 0.949 µM): 51.3%
- viability, T/C (second compound 1 µM, first compound 3 µM): 42.8%
- viability, T/C (second compound 3.16 µM, first compound 0.00949 µM): 87.3%
- viability, T/C (second compound 3.16 µM, first compound 0.03 µM): 79.5%
- viability, T/C (second compound 3.16 µM, first compound 0.0949 µM): 80.7%
- viability, T/C (second compound 3.16 µM, first compound 0.3 µM): 63.8%
- viability, T/C (second compound 3.16 µM, first compound 0.949 µM): 56%
- viability, T/C (second compound 3.16 µM, first compound 3 µM): 42.1%
- viability, T/C (second compound 10 µM, first compound 0.00949 µM): 79.9%
- viability, T/C (second compound 10 µM, first compound 0.03 µM): 88.4%
- viability, T/C (second compound 10 µM, first compound 0.0949 µM): 69.5%
- viability, T/C (second compound 10 µM, first compound 0.3 µM): 51.6%
- viability, T/C (second compound 10 µM, first compound 0.949 µM): 50.7%
- viability, T/C (second compound 10 µM, first compound 3 µM): 46.7%
